Results from ChEMBL document CHEMBL1909046, “DrugMatrix in vitro pharmacology data”.

Assays:
[1] = DRUGMATRIX: Atrial Natriuretic Factor (ANF) radioligand binding (ligand: [125I] ANF (rat)); assay type: cell membranes, Cavia porcellus, Dunkin-Hartley, Adrenal gland, Membrane; conditions: Not Active = under 50% inhibition at 10 µM
[2] = molecular target: 5-hydroxytryptamine receptor 4 (Cavia porcellus, UniProt O70528); assay type: cell membranes, Dunkin-Hartley, Striatum, Membrane; note: in other assays of this panel Not Active means under 50% inhibition at 10 µM
[3] = molecular target: Vascular endothelial growth factor receptor 1 (Homo sapiens, UniProt P17948); assay type: cell-based; conditions: huvec; note: in other assays of this panel Not Active means under 50% inhibition at 10 µM
Leukotriene C4 synthase = molecular target: T1, Leukotriene C4 synthase (Cavia porcellus, UniProt A6XA80); assay: biochemical; assay type: tissue-based, Lung;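 note: enzyme inhibition assay of leukotriene C4 synthase, using LTA4 as the substrate; in other assays of this panel Not Active means under 50% inhibition at 10 µM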
T1 sequence (A6XA80 whole entry): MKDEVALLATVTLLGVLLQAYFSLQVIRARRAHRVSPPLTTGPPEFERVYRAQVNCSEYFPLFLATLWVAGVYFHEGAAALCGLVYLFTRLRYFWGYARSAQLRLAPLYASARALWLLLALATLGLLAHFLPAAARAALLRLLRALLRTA

[4] = molecular target: T2, Vasoactive intestinal polypeptide receptor 1 (Homo sapiens, UniProt P32241); assay type: cell membranes, Membrane; conditions: ht-29; note: in other assays of this panel Not Active means under 50% inhibition at 10 µM
T2 sequence (P32241 whole entry): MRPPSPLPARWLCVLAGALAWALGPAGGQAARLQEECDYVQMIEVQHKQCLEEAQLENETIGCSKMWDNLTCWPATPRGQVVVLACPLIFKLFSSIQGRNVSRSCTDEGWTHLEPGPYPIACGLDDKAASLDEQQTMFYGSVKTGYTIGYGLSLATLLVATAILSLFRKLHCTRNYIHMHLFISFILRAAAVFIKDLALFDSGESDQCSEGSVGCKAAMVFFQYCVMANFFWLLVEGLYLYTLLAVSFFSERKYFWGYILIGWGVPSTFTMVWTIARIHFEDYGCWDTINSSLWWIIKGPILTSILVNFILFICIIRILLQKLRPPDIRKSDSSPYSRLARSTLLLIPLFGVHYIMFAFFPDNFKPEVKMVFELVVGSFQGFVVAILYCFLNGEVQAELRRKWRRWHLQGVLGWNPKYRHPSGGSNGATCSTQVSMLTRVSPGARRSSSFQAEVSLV

Cytochrome P450 3A4 = Cytochrome P450 3A4 (Homo sapiens, UniProt P08684); conditions: bti-tn-5b1-4; note: in other assays of this panel Not Active means under 50% inhibition at 10 µM
[5] = DRUGMATRIX: GABAA, Flunitrazepam, Central radioligand binding (ligand: [3H] Flunitrazepam); assay type: cell membranes, Rattus norvegicus, Wistar, Brain, Membrane; conditions: Not Active = under 50% inhibition at 10 µM
[6] = molecular target: 5-hydroxytryptamine receptor 6 (Homo sapiens, UniProt P50406); assay type: cell membranes, HeLa, Membrane; conditions: hela; note: in other assays of this panel Not Active means under 50% inhibition at 10 µM
Thromboxane-A synthase = molecular target: T3, Thromboxane-A synthase (Homo sapiens, UniProt P24557); assay: biochemical; assay type: tissue-based, Platelet
T3 sequence (P24557 whole entry): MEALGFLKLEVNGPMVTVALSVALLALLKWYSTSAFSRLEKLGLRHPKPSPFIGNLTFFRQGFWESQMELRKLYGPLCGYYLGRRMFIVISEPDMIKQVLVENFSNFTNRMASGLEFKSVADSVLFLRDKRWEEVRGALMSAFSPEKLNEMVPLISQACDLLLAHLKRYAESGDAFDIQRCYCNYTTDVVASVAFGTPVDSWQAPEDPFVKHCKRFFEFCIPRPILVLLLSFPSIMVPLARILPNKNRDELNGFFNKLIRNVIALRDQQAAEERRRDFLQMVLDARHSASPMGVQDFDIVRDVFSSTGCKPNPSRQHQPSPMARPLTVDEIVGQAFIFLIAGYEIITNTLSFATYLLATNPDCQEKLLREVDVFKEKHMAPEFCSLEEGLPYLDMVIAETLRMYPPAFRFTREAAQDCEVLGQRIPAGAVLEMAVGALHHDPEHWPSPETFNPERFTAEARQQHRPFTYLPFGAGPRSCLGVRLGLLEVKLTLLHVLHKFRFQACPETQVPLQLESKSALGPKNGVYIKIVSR

Calcitonin receptor = molecular target: T4, Calcitonin receptor (Homo sapiens, UniProt P30988); assay type: cell membranes, Membrane; conditions: t47d; note: in other assays of this panel Not Active means under 50% inhibition at 10 µM
T4 sequence (P30988 whole entry): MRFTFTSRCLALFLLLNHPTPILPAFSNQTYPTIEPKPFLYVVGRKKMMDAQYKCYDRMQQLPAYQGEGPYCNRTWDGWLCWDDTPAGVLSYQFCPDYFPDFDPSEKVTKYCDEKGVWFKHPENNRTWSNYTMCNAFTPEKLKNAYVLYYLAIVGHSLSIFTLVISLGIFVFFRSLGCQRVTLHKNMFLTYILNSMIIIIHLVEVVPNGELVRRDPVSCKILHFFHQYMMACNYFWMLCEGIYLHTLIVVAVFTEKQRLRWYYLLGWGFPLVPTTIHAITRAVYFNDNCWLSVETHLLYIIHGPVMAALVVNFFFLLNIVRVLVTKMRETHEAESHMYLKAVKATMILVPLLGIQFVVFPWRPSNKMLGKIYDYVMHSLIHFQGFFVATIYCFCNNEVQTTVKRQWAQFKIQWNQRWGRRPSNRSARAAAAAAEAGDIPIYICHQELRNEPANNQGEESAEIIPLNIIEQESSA

[7] = molecular target: T5, C-X-C chemokine receptor type 2 (Homo sapiens, UniProt P25025); assay type: cell membranes, Membrane; conditions: cho-k1; note: in other assays of this panel Not Active means under 50% inhibition at 10 µM
T5 sequence (P25025 whole entry): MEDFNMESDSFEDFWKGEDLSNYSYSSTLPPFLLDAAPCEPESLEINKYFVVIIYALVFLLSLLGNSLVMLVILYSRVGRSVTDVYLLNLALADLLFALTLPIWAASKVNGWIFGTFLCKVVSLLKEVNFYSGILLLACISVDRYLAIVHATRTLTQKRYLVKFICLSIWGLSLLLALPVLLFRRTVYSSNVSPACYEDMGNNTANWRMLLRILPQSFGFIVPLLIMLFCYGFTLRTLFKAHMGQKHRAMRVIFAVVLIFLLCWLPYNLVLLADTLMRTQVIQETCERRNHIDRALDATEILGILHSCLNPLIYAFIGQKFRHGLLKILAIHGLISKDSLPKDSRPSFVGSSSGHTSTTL

Adenosine receptor A1 = molecular target: T6, Adenosine receptor A1 (Homo sapiens, UniProt P30542); assay type: cell membranes, CHO, Membrane; conditions: cho
T6 sequence (P30542 whole entry): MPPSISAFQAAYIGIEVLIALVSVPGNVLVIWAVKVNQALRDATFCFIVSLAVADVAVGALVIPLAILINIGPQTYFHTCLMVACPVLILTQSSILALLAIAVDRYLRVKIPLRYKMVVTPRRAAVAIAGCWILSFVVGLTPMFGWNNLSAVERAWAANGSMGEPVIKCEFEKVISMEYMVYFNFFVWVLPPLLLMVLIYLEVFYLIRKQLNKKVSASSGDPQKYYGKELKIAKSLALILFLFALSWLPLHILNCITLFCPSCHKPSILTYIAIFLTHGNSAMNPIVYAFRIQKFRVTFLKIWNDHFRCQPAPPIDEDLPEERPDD

[8] = molecular target: Matrix metalloproteinase-9 (Homo sapiens, UniProt P14780); assay type: cell-based
Matrix metalloproteinase-9, sequence (P14780 whole entry): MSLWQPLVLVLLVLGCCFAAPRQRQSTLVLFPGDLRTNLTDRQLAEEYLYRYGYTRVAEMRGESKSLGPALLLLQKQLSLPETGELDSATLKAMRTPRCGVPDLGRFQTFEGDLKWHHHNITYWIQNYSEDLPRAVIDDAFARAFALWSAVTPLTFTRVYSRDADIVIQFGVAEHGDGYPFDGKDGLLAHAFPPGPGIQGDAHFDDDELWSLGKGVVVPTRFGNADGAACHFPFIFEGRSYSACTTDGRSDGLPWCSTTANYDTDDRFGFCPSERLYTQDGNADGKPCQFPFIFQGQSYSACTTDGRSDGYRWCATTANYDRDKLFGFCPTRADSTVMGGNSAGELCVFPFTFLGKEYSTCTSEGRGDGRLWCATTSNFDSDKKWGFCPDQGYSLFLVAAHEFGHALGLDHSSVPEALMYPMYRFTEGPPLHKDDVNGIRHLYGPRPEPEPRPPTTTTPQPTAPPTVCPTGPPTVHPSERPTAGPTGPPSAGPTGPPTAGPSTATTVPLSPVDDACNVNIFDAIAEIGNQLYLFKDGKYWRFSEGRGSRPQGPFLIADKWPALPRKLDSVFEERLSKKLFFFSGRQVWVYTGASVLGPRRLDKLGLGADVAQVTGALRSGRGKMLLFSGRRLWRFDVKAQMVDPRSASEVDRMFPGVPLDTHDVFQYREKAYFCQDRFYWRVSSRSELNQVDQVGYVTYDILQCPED

Vascular endothelial growth factor receptor 1, sequence (P17948 whole entry): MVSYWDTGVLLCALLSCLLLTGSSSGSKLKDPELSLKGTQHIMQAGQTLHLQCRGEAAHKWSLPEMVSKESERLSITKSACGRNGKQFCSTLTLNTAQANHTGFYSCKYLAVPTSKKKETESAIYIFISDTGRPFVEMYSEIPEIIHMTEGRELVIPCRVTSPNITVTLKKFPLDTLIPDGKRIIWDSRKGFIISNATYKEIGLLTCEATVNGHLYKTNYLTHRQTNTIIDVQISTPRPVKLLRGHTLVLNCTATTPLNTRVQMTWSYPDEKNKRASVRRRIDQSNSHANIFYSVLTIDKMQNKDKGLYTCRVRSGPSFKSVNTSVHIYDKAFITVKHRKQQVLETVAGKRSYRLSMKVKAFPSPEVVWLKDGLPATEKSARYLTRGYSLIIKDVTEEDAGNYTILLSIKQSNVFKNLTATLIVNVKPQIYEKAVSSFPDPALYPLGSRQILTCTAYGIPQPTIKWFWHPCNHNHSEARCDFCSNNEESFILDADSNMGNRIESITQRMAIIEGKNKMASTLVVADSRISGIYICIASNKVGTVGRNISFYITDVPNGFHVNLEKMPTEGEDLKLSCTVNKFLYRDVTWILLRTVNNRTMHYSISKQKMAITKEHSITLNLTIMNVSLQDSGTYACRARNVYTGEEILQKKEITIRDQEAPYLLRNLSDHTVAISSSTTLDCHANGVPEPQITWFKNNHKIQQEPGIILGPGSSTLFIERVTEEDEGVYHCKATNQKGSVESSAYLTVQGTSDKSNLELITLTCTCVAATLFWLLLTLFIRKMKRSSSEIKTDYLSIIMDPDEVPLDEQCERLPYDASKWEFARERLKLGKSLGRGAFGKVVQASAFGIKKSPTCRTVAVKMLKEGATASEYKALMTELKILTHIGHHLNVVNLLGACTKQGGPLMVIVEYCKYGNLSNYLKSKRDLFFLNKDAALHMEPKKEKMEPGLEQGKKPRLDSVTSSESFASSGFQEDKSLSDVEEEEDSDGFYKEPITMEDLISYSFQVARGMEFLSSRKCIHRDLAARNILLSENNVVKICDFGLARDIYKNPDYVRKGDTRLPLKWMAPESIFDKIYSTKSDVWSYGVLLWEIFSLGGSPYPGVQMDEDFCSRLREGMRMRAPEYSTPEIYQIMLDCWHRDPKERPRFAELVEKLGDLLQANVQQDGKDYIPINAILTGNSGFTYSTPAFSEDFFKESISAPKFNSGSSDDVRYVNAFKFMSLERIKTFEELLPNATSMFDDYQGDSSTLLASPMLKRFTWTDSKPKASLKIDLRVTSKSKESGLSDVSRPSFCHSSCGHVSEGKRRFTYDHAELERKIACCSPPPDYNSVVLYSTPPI
5-hydroxytryptamine receptor 6, sequence (P50406 whole entry): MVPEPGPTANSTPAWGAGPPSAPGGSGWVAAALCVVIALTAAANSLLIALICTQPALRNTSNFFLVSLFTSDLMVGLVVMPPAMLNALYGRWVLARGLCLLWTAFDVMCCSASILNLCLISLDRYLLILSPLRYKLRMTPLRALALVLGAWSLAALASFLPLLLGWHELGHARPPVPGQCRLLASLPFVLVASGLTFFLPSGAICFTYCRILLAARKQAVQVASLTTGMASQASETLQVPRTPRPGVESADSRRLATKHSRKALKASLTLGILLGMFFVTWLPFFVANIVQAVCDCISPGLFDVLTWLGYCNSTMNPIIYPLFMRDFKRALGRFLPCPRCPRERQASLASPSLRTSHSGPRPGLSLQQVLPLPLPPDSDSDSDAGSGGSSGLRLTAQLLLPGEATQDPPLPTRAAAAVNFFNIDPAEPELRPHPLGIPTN
5-hydroxytryptamine receptor 4, sequence (O70528 whole entry): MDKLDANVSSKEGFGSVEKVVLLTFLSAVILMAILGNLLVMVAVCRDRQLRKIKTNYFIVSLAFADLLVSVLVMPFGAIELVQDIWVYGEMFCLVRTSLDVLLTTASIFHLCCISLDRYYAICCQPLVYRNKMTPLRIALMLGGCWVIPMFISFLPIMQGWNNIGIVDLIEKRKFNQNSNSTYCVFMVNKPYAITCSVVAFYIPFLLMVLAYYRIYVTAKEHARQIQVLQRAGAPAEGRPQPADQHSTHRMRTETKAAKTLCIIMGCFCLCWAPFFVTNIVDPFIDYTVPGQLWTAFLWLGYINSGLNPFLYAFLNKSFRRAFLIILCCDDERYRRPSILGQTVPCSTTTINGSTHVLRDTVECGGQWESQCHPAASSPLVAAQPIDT
Cytochrome P450 3A4, sequence (P08684 whole entry): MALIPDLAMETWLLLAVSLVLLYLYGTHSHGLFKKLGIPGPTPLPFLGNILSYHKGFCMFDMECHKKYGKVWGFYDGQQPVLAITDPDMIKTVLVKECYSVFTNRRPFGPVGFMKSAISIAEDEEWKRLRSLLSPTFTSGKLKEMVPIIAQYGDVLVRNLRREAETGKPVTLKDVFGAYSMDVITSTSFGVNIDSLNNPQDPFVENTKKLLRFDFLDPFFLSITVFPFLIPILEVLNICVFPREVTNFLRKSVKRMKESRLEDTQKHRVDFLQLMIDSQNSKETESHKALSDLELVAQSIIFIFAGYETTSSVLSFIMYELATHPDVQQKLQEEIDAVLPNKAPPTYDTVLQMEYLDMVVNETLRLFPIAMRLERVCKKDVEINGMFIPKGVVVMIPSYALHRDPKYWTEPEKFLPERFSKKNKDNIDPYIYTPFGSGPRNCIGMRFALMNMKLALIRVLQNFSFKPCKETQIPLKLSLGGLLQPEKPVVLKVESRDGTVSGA

Row | SMILES | IC50 [1] | Ki [1] | IC50 [2] | IC50 [3] | IC50 (Leukotriene C4 synthase) | IC50 [4] | IC50 (Cytochrome P450 3A4) | Ki (Cytochrome P450 3A4) | IC50 [5] | Ki [5] | IC50 [6] | IC50 (Thromboxane-A synthase; read-out: IC50) [nM] | IC50 (Calcitonin receptor) | IC50 [7] | IC50 (Adenosine receptor A1) | IC50 [8] | IC50 (Thromboxane-A synthase; platelet)
1 | Oc1c(Cl)cc(Cl)cc1Sc1cc(Cl)cc(Cl)c1O [BITHIONOL] | Not Active | Not Active | Not Active | Not Active | Not Active | Not Active | Not Active | Not Active | Not Active | Not Active | Not Active | 1840 | Not Active | Not Active | Not Active | Not Active | –
2 | Brc1ccccc1 [BROMOBENZENE] | Not Active | Not Active | Not Active | Not Active | Not Active | Not Active | Not Active | Not Active | Not Active | Not Active | Not Active | – | Not Active | Not Active | Not Active | Not Active | Not Active
3 | CC[C@@]1(O)C(=O)OCc2c1cc1n(c2=O)Cc2cc3ccccc3nc2-1 [CAMPTOTHECIN] | Not Active | Not Active | Not Active | Not Active | Not Active | Not Active | Not Active | Not Active | Not Active | Not Active | Not Active | – | Not Active | Not Active | Not Active | Not Active | Not Active
4 | COCc1c(C(C)C)nc(C(C)C)c(/C=C/[C@@H](O)C[C@@H](O)CC(=O)O)c1-c1ccc(F)cc1 [CERIVASTATIN] | Not Active | Not Active | Not Active | Not Active | Not Active | Not Active | Not Active | Not Active | Not Active | Not Active | Not Active | – | Not Active | Not Active | Not Active | Not Active | Not Active
5 | CC(=O)O[C@]1(C(C)=O)CC[C@H]2[C@@H]3C=C(Cl)C4=CC(=O)CC[C@]4(C)[C@H]3CC[C@@]21C [CHLORMADINONE ACETATE] | Not Active | Not Active | Not Active | Not Active | Not Active | Not Active | Not Active | Not Active | Not Active | Not Active | Not Active | – | Not Active | Not Active | Not Active | Not Active | Not Active
6 | O=C1CCc2cc(OCCCCc3nnnn3C3CCCCC3)ccc2N1 [CILOSTAZOL] | Not Active | Not Active | Not Active | Not Active | Not Active | Not Active | Not Active | Not Active | Not Active | Not Active | Not Active | – | Not Active | Not Active | Not Active | Not Active | Not Active
7 | CN(C)CCCC1(c2ccc(F)cc2)OCc2cc(C#N)ccc21 (centres undefined) [CITALOPRAM] | Not Active | Not Active | Not Active | Not Active | Not Active | Not Active | Not Active | Not Active | Not Active | Not Active | Not Active | – | Not Active | Not Active | Not Active | Not Active | Not Active
8 | C[C@]12CCC(=O)C=C1CC[C@@H]1[C@@H]2C(=O)C[C@@]2(C)[C@H]1CC[C@]2(O)C(=O)CO [CORTISONE] | Not Active | Not Active | Not Active | Not Active | Not Active | Not Active | Not Active | Not Active | Not Active | Not Active | Not Active | – | Not Active | Not Active | Not Active | Not Active | Not Active
9 | Cc1ccccc1N1CCN(CCc2nnc3n2CCCC3)CC1 [DAPIPRAZOLE] | Not Active | Not Active | Not Active | Not Active | Not Active | Not Active | Not Active | Not Active | Not Active | Not Active | Not Active | – | Not Active | Not Active | Not Active | Not Active | Not Active
